In brackets after ≈: the same amount, converted by molar mass.
Columns and labels:
Sinorhizobium meliloti = assay: microbe, parasite or virus in culture; assay type: cell-based
Liberibacter crescens = assay: microbe, parasite or virus in culture; assay type: cell-based
Xanthomonas citri = assay: microbe, parasite or virus in culture; assay type: cell-based, Xanthomonas citri subsp. citri
SecA of Ca. L. asiaticus = SecA of Ca. L. asiaticus (Candidatus Liberibacter asiaticus, UniProt A0ABM5NFG5); assay: biochemical
CLAS populations = assay: Effect on CLAS populations, mean Ct by quantitative PCR (Example 2)
A. tumefaciens = assay: microbe, parasite or virus in culture; assay type: cell-based; conditions: Agrobacterium tumefaciens, 24 h
[1] = tested on: Agrobacterium tumefaciens; assay: microbe, parasite or virus in culture; assay type: cell-based
Rhizobium etli = assay: microbe, parasite or virus in culture; assay type: cell-based
Mesorhizobium loti = assay: microbe, parasite or virus in culture; assay type: cell-based
CLAS = CLAS transmission rate using graft-based approach (Example 3); assay type: in vivo; conditions: budwood treated at 500 μg/ml, grafted onto Valencia trees
Protocol: HLB-infected budwoods were collected in HLB infected grove in teaching block at CREC. The presence of CLAS titers in budwood was confirmed by qPCR.
C16 and streptomycin were applied at the rate of 500 μg/ml; water-treated budwood was used as check. The budwoods were placed in a glass bottle containing either treatment or water as check. The glass bottles were kept in a ventilation hood with light on to increase the evaporation rate, therefore, promoting the uptake of antibiotics. Leaf and bark samples were collected from each budwood and 100 mg were accurately weighed and used for DNA extraction with Promega genomic DNA extraction kit. CLAS populations in each sample were determined using standard qPCR protocol. Each DNA sample was run in triplicate wells.
After overnight treatment, the antibiotic-treated budwood was grafted onto 2-3 years old Valencia trees. A total of 15 trees were grafted for each treatment. […] Four leaves from the main stem of Valencia trees were sampled for DNA extraction and determination of CLAS populations.

Bradyrhizobium japonicum = assay: microbe, parasite or virus in culture; assay type: cell-based

Work on CCc1nnc(NC(=O)c2cc3c([nH]c4ccccc43)c(C)n2)s1 [Compound C16, N-(5-ethyl-1,3,4-thiadiazol-2-yl)-1-methyl-9H-beta-carboline-3-carboxamide] yielded an MBC (Sinorhizobium meliloti) of 64 µg/mL (≈ 190 µM), an MIC (Sinorhizobium meliloti) of 32 µg/mL (≈ 94.8 µM) and an MBC (Liberibacter crescens; 24 h) of 16 µg/mL (≈ 47.4 µM). It also gave an MIC (Liberibacter crescens; 24 h) of 8 µg/mL (≈ 23.7 µM), an MBC (Liberibacter crescens; 120 h) of 32 µg/mL (≈ 94.8 µM) and an MIC (Liberibacter crescens; 120 h) of 16 µg/mL (≈ 47.4 µM). For the same molecule, the MBC (Xanthomonas citri) was 32 µg/mL (≈ 94.8 µM), the MIC (Xanthomonas citri) was 16 µg/mL (≈ 47.4 µM) and the IC50 (SecA of Ca. L. asiaticus) was 250 nM. The “inhibition of ATPase activity of SecA, in words” value (SecA of Ca. L. asiaticus) was “high activity”, the “mean Ct value (CLAS populations)” value (CLAS populations; 2 days after treatment) was 23.76 a and the “mean Ct value (CLAS populations)” value (CLAS populations; 4 days after treatment) was 25.43 b. For the same molecule, the “mean Ct value (CLAS populations)” value (CLAS populations; Before treatment) was 22.71 a, the “CLAS population reduction as compared to water-treated control” value (CLAS populations; P<0.05, Fisher's LSD) was “significant effect” and the MBC (A. tumefaciens) was 256 µg/mL (≈ 759 µM). It also gave an MBC [1] of 128 µg/mL (≈ 379 µM), an MIC [1] of 64 µg/mL (≈ 190 µM) and an MBC (Rhizobium etli; 24 hrs) of 16 µg/mL (≈ 47.4 µM). The MIC (Rhizobium etli; 24 hrs) was 16 µg/mL (≈ 47.4 µM), the MBC (Rhizobium etli; 120 hrs) was 32 µg/mL (≈ 94.8 µM) and the MIC (Rhizobium etli; 120 hrs) was 32 µg/mL (≈ 94.8 µM). The MBC (Mesorhizobium loti) was 16 µg/mL (≈ 47.4 µM), the MIC (Mesorhizobium loti) was 8 µg/mL (≈ 23.7 µM) and the “CLAS transmission rate (% trees tested positive for CLAS)” value (CLAS; 3 months after grafting) was 6.7%. For the same molecule, the “CLAS transmission rate (% trees tested positive for CLAS)” value (CLAS; 6 months after grafting) was 80%, the MBC (Bradyrhizobium japonicum; 24 hrs) was 16 µg/mL (≈ 47.4 µM) and the MIC (Bradyrhizobium japonicum; 24 hrs) was 16 µg/mL (≈ 47.4 µM). The MBC (Bradyrhizobium japonicum; 120 hrs) was 32 µg/mL (≈ 94.8 µM) and the MIC (Bradyrhizobium japonicum; 120 hrs) was 32 µg/mL (≈ 94.8 µM).
[H]/N=C(/N)N[C@H]1[C@H](O)[C@@H](O)[C@H](O[C@@H]2O[C@@H](C)[C@](O)(C=O)[C@H]2O[C@@H]2O[C@@H](CO)[C@H](O)[C@@H](O)[C@@H]2NC)[C@@H](N/C(N)=N\[H])[C@@H]1O [Streptomycin, reference compound] gave an MBC (Sinorhizobium meliloti) of 128 µg/mL (≈ 220 µM), an MIC (Sinorhizobium meliloti) of 64 µg/mL (≈ 110 µM) and an MBC (Liberibacter crescens; 24 h) of 16 µg/mL (≈ 27.5 µM). The MIC (Liberibacter crescens; 24 h) was 16 µg/mL (≈ 27.5 µM), the MBC (Liberibacter crescens; 120 h) was 32 µg/mL (≈ 55 µM) and the MIC (Liberibacter crescens; 120 h) was 32 µg/mL (≈ 55 µM). The MBC (Xanthomonas citri) was 32 µg/mL (≈ 55 µM), the MIC (Xanthomonas citri) was 32 µg/mL (≈ 55 µM) and the MBC (A. tumefaciens) was 64 µg/mL (≈ 110 µM). It also gave an MBC [1] of 128 µg/mL (≈ 220 µM), an MIC [1] of 64 µg/mL (≈ 110 µM) and an MBC (Rhizobium etli; 24 hrs) of 4 µg/mL (≈ 6.88 µM). It also gave an MIC (Rhizobium etli; 24 hrs) of 4 µg/mL (≈ 6.88 µM), an MBC (Rhizobium etli; 120 hrs) of 16 µg/mL (≈ 27.5 µM) and an MIC (Rhizobium etli; 120 hrs) of 16 µg/mL (≈ 27.5 µM). For the same molecule, the MBC (Mesorhizobium loti) was 32 µg/mL (≈ 55 µM), the MIC (Mesorhizobium loti) was 16 µg/mL (≈ 27.5 µM) and the “CLAS transmission rate (% trees tested positive for CLAS)” value (CLAS; 3 months after grafting) was 13.3%. The “CLAS transmission rate (% trees tested positive for CLAS)” value (CLAS; 6 months after grafting) was 66.7%, the MBC (Bradyrhizobium japonicum; 24 hrs) was 32 µg/mL (≈ 55 µM) and the MIC (Bradyrhizobium japonicum; 24 hrs) was 32 µg/mL (≈ 55 µM). It also gave an MBC (Bradyrhizobium japonicum; 120 hrs) of 32 µg/mL (≈ 55 µM) and an MIC (Bradyrhizobium japonicum; 120 hrs) of 32 µg/mL (≈ 55 µM).
